EP0726764B1, “MULTILAMELLAR LIPOSOMAL ARACHIDONIC ACID METABOLITE FORMULATIONS” (THE LIPOSOME COMPANY, INC., priority 1993, dated 1995)
Like-named read-outs stand apart in the source and are kept apart here.

What was measured:
[1] = cited from earlier work
[2] = tested on: infarct size; settings: continuous arterial infusion over a six-hour period, free (non-liposomal); cited from earlier work
[3] = tested on: acute myocardial infarction; settings: slow intracoronary infusion together with intracoronary streptokinase; cited from earlier work
[4] = tested on: adjuvant arthritis; assay: Rat adjuvant arthritis (complete Freund's adjuvant); assay type: in vivo, Male Lewis rats
[5] = tested on: restenosis; settings: intracoronary infusion over a 24-hour period; cited from earlier work
[6] = tested on: leukocyte extravasation from the peripheral vasculature to sites of inflammation; assay: Rat subcutaneous air pouch, fMLP-induced inflammation; assay type: in vivo, Male Sprague-Dawley rats; settings: visual examination of post-stimulation air pouch lining
Description: • Figure 1. Release of PGE1 from MLVs. The release of prostaglandin E1 (PGE1) from multilamellar vesicles (MLVs) comprising egg phosphatidylcholine (EPC) or dipalmitoyl phosphatidylcholine (DPPC) formed in 50 mM citrate buffer, pH 4.5, and then incubated at room temperature in pH 7.1 buffer for the indicated amount of time, is set forth. X-axis: time (minutes); y-axis: percent PGE1 retained in pelleted liposomes. • Figure 2. Rat Air Pouch Studies. Liposomal PGE1 formulations inhibit the extravasation of leukocytes from the vasculature to the rat air pouch. Subcutaneous air pouches were formed in male Sprague-Dawley rats. fMLP (2.15 µg) was injected directly into the air pouch at time 0, and free or liposomal PGE1 was simultaneously injected intravenously. After six hours, the air pouch exudate was collected and the air pouch total cell population determined. For each treatment group, n=4. […] After six hours, the air pouch exudate was collected, and the air pouch total cell population determined. […] After six hours, the air pouch exudate was collected, and the air pouch total cell population determined. […] After six and 24 hours, the air pouch exudates were collected, and the air pouch total cell populations were determined. […]

[7] = tested on: LPS-induced death; assay: Rat endotoxemia model, LPS-induced mortality; assay type: in vivo, Male Sprague-Dawley rats; settings: 50 µg/kg LPS i.v. at time 0, PGE1 40 µg/kg i.v. simultaneously

For CCCCCC(C)(O)/C=C/[C@H]1[C@H](O)CC(=O)[C@@H]1CCCCCCC(=O)O (some centres unmarked) [15-methyl-PGE1], the bioavailability ([1]; free stable prostaglandin analog) is given as no less than 8 h.
In the case of CCCCC[C@H](O)/C=C/[C@@H]1[C@H]2C/C(=C/CCCC(=O)O)O[C@H]2C[C@H]1O [PGI2], the “reducing the infarct size” value [2] is given as “scant effect”.
In the case of CCCCC[C@H](O)/C=C/[C@H]1[C@H](O)CC(=O)[C@@H]1CCCCCCC(=O)O [free PGE1, prostaglandin E1], the “clinical results versus intracoronary streptokinase alone” value [3] is listed as “positive clinical results”, the “inhibition of arthritis progression, treatment begun 10 days post-adjuvant” value ([4]; 10 µg/kg beginning at day 10, every second day) is listed as “still receive protection horn disease progression, although the inhibition of arthritis progression was not as profound” and the “progression of adjuvant arthritis (weight gain, joint edema)” value ([4]; 10 µg/kg, injections every second day) is listed as “attenuated the progression of adjuvant arthritis”. For the same compound, the “subjective scoring of general health and mobility” value ([4]; 10 µg/kg, scored at day 14) was “maintenance of general health and mobility”, the “reduction of the rate of restenosis six months after angioplasty versus untreated control group” value [5] was roughly 50% and the “vascular reactivity and number of leukocytes invading the pouch lining” value [6] was “reduction in vascular reactivity and a concurrent reduction in the number of leukocytes invading the pouch lining”. For the same compound, the LPS induced mortality [7] was “increased both the rate and magnitude of LPS induced mortality”, the bioavailability ([1]; free PGE1) was less than 0.25 h and the “reducing the infarct size” value [2] was “scant effect”.
